Measurements published in PubChem BioAssay AID330 (DTP/NCI, 2004).
Where “and” joins values, the source holds several entries; their conditions need not be identical. Equal values may be shown once. Inconclusive results and toxic doses are left out. Rule for the calls: active = survival T/C of 150% or more; inactive = T/C below 125% in these data.

Tested on: P388 leukemia ip, CD2F1 mice, survival T/C
Assay: NCI In Vivo Anticancer Drug Screen. Data for tumor model P388 Leukemia (intraperitoneal) in CD2F1 (CDF1) mice
Conditions: endpoint: median survival time, higher = longer survival
How it was run: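 Mice carrying the transplanted tumor received test compound or vehicle. Survival was recorded in each group, and the value is the treated-group measurement divided by that of the vehicle-treated control group.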

[1] = dose: 50.0 mg/kg/injection, schedule: Q01DX009 (ip), vehicle: Klucel (hydroxypropylcellulose) (HPC)
[2] = dose: 100.0 mg/kg/injection, schedule: Q01DX009 (ip), vehicle: Klucel (hydroxypropylcellulose) (HPC)
[3] = dose: 50.0 mg/kg/injection, schedule: Q01DX005 (ip), vehicle: saline with Tween-80
[4] = dose: 100.0 mg/kg/injection, schedule: Q01DX005 (ip), vehicle: saline with Tween-80
[5] = dose: 200.0 mg/kg/injection, schedule: Q01DX005 (ip), vehicle: saline with Tween-80
[6] = dose: 12.5 mg/kg/injection, schedule: Q01DX009 (ip), vehicle: saline
[7] = dose: 25.0 mg/kg/injection, schedule: Q01DX009 (ip), vehicle: saline
[8] = dose: 50.0 mg/kg/injection, schedule: Q01DX009 (ip), vehicle: saline
[9] = dose: 100.0 mg/kg/injection, schedule: Q01DX009 (ip), vehicle: saline
[10] = dose: 12.5 mg/kg/injection, schedule: Q01DX009 (ip), vehicle: saline with Tween-80
[11] = dose: 25.0 mg/kg/injection, schedule: Q01DX009 (ip), vehicle: saline with Tween-80
[12] = dose: 50.0 mg/kg/injection, schedule: Q01DX009 (ip), vehicle: saline with Tween-80
[13] = dose: 100.0 mg/kg/injection, schedule: Q01DX009 (ip), vehicle: saline with Tween-80
[14] = dose: 200.0 mg/kg/injection, schedule: Q01DX009 (ip), vehicle: saline with Tween-80
[15] = dose: 200.0 mg/kg/injection, schedule: Q01DX009 (ip), vehicle: saline

Measured: T/C

O=c1c2ccccc2nc2sc3nc4ccccc4c(=O)n3n12
inactive: dose: 15.0 mg/kg/injection, schedule: Q01DX005 (ip), vehicle: Klucel (hydroxypropylcellulose) (HPC) 94 % of control | dose: 30.0 mg/kg/injection, schedule: Q01DX005 (ip), vehicle: Klucel (hydroxypropylcellulose) (HPC) 91 % of control | dose: 60.0 mg/kg/injection, schedule: Q01DX005 (ip), vehicle: Klucel (hydroxypropylcellulose) (HPC) 88 % of control and 92 % of control | dose: 120.0 mg/kg/injection, schedule: Q01DX005 (ip), vehicle: Klucel (hydroxypropylcellulose) (HPC) 89 % of control | dose: 240.0 mg/kg/injection, schedule: Q01DX005 (ip), vehicle: Klucel (hydroxypropylcellulose) (HPC) 96 % of control

O=C(Nc1cccc(Br)c1)Oc1ccc(Cl)c2cccnc12
inactive: dose: 7.5 mg/kg/injection, schedule: Q01DX005 (ip), vehicle: saline with Tween-80 107 % of control | dose: 15.0 mg/kg/injection, schedule: Q01DX005 (ip), vehicle: saline with Tween-80 103 % of control | dose: 30.0 mg/kg/injection, schedule: Q01DX005 (ip), vehicle: saline with Tween-80 103 % of control and 91 % of control | dose: 60.0 mg/kg/injection, schedule: Q01DX005 (ip), vehicle: saline with Tween-80 100 % of control and 111 % of control | dose: 240.0 mg/kg/injection, schedule: Q01DX005 (ip), vehicle: saline with Tween-80 88 % of control

N=c1nc(N)ncn1-c1ccccc1
inactive: dose: 1.56 mg/kg/injection, schedule: Q01DX005 (ip), vehicle: saline with Tween-80 99 % of control and 102 % of control | dose: 3.13 mg/kg/injection, schedule: Q01DX005 (ip), vehicle: saline with Tween-80 103 % of control and 104 % of control | dose: 6.25 mg/kg/injection, schedule: Q01DX005 (ip), vehicle: saline with Tween-80 99 % of control and 102 % of control | dose: 12.5 mg/kg/injection, schedule: Q01DX005 (ip), vehicle: saline with Tween-80 102 % of control and 104 % of control and 108 % of control

CC[n+]1c(/C=C/c2ccc(N(CCC(=O)O)CCC(=O)O)cc2)ccc2ccccc21
inactive: dose: 12.5 mg/kg/injection, schedule: Q04DX002 (ip), vehicle: saline with Tween-80 100 % of control | dose: 25.0 mg/kg/injection, schedule: Q04DX002 (ip), vehicle: saline with Tween-80 106 % of control | dose: 50.0 mg/kg/injection, schedule: Q04DX002 (ip), vehicle: saline with Tween-80 106 % of control

CCCCCCCCCCCCCCCCCCCCC(C(=O)OCC)S(=O)(=O)O (stereo not given)
inactive: [1] 116 % of control | [2] 111 % of control

COC(=O)c1nnn(-c2ccc(S(N)(=O)=O)cc2)c1N
inactive: dose: 60.0 mg/kg/injection, schedule: Q01DX005 (ip), vehicle: saline 98 % of control | dose: 120.0 mg/kg/injection, schedule: Q01DX005 (ip), vehicle: saline 104 % of control | dose: 240.0 mg/kg/injection, schedule: Q01DX005 (ip), vehicle: saline 98 % of control

[Se]=P(c1ccccc1)(N1CC1)N1CC1
inactive: dose: 25.0 mg/kg/injection, schedule: Q04DX003 (ip), vehicle: saline with Tween-80 108 % of control | dose: 50.0 mg/kg/injection, schedule: Q04DX003 (ip), vehicle: saline with Tween-80 109 % of control

O=C1NC(=O)N2CC(CBr)OC2C1c1ccccc1 (stereo not given)
inactive: [1] 101 % of control | [2] 100 % of control | dose: 200.0 mg/kg/injection, schedule: Q01DX009 (ip), vehicle: Klucel (hydroxypropylcellulose) (HPC) 100 % of control

CN1C(=O)N(C)C(=O)C(Nc2ccc([N+](=O)[O-])cc2)(SCCO)C1=O
inactive: [3] 100 % of control | [4] 104 % of control | [5] 104 % of control

NC(N)=NCC1CCCCCCN1 (stereo not given)
inactive: [6] 106 % of control | [7] 100 % of control | [8] 104 % of control | [9] 104 % of control

Oc1ccccc1/C=N\Nc1ccccc1
inactive: dose: 100.0 mg/kg/injection, schedule: Q01DX001 (ip), vehicle: other 113 % of control | dose: 200.0 mg/kg/injection, schedule: Q01DX001 (ip), vehicle: other 118 % of control | dose: 400.0 mg/kg/injection, schedule: Q01DX001 (ip), vehicle: other 100 % of control

Cc1cc(NS(=O)(=O)c2ccc(N=Nc3cc(N=Nc4ccc(S(=O)(=O)Nc5cc(C)nc(C)n5)cc4)c4c(NC(=O)C(Cl)Cl)cccc4c3OC(=O)C(Cl)Cl)cc2)nc(C)n1 (tested in a mixture with another compound)
inactive: [10] 113 % of control | [11] 117 % of control | [12] 106 % of control [middle of 4 runs] | [8] 108 % of control [middle of 4 runs] | [13] 99 % of control and 105 % of control and 107 % of control | [9] 111 % of control and 115 % of control and 118 % of control | [14] 91 % of control and 95 % of control | [15] 99 % of control

O=C(NC1CCCCC1)N1CCCC1
inactive: [8] 99 % of control | [13] 91 % of control | [9] 95 % of control | [14] 86 % of control | [15] 102 % of control

CCOc1cc(=O)cc2n(-c3cc(OCC)c(O)c(OCC)c3)c3ccccc3nc1-2
inactive: dose: 50.0 mg/kg/injection, schedule: Q01DX009 (ip), vehicle: suspension in saline 100 % of control | dose: 100.0 mg/kg/injection, schedule: Q01DX009 (ip), vehicle: suspension in saline 101 % of control | dose: 200.0 mg/kg/injection, schedule: Q01DX009 (ip), vehicle: suspension in saline 97 % of control

CC(C)c1cc(C(F)(F)F)nc(NNc2nc(C(C)C)cc(C(F)(F)F)n2)n1
inactive: [12] 104 % of control | [13] 104 % of control | [14] 92 % of control

OCC1CSCN1 (stereo not given)
inactive: dose: 50.0 mg/kg/injection, schedule: Q04DX002 (ip), vehicle: saline 93 % of control | dose: 100.0 mg/kg/injection, schedule: Q04DX002 (ip), vehicle: saline 99 % of control and 101 % of control | dose: 200.0 mg/kg/injection, schedule: Q04DX002 (ip), vehicle: saline 101 % of control and 120 % of control | dose: 400.0 mg/kg/injection, schedule: Q04DX002 (ip), vehicle: saline 101 % of control and 104 % of control

Clc1c(CBr)ccc(CBr)c1Cl
inactive: [10] 100 % of control | [11] 100 % of control | [12] 115 % of control

COc1ccc2[nH]c(C(=O)N(C)C)cc2c1
inactive: [3] 100 % of control | [4] 104 % of control | [5] 101 % of control

NC(CSCCc1ccncc1)C(=O)O (stereo not given)
inactive: dose: 6.25 mg/kg/injection, schedule: Q01DX009 (ip), vehicle: saline 103 % of control | [6] 105 % of control | [7] 96 % of control

CC1(C)CC(O)(CC2CCC34C(=O)OC(C)(CCC3Br)C24)CCC1Br (stereo not given)
inactive: dose: 5.0 mg/kg/injection, schedule: Q01DX009 (ip), vehicle: Klucel (hydroxypropylcellulose) (HPC) 93 % of control | dose: 10.0 mg/kg/injection, schedule: Q01DX009 (ip), vehicle: Klucel (hydroxypropylcellulose) (HPC) 109 % of control | dose: 20.0 mg/kg/injection, schedule: Q01DX009 (ip), vehicle: Klucel (hydroxypropylcellulose) (HPC) 100 % of control

CCOC(=O)Nc1ccc2c3c(cccc13)-c1ccccc1-2
inactive: dose: 50.0 mg/kg/injection, schedule: Q01DX005 (ip), vehicle: Klucel (hydroxypropylcellulose) (HPC) 90 % of control | dose: 100.0 mg/kg/injection, schedule: Q01DX005 (ip), vehicle: Klucel (hydroxypropylcellulose) (HPC) 97 % of control | dose: 200.0 mg/kg/injection, schedule: Q01DX005 (ip), vehicle: Klucel (hydroxypropylcellulose) (HPC) 91 % of control
